Test results as given in US20220062296A1, “COMBINATIONS OF GABAA ALPHA 5 AGONISTS AND SV2A INHIBITORS AND METHODS OF USING IN THE TREATMENT OF COGNITIVE IMPAIRMENT” (AGENEBIO, INC., priority 2020, published 2022).

Experiments:
[1] = tested on: reelin in Entorhinal Cortex (EC2); test: Reelin mRNA in situ hybridization in entorhinal cortex (EC2); conditions: 10 mg/kg/day for 28 days; vs AI-VEH p=0.033
DG/CA3 of aMCI subjects = test: fMRI activity in DG/CA3 during explicit 3-alternative forced choice task; assay type: in vivo, human; conditions: for DG/CA3 hyperactivity: two weeks
[2] = cited from earlier work
aged-impaired (AI) rats = test: Radial Arm Maze (RAM) task with one-hour delay, levetiracetam; assay type: in vivo, rat; conditions: for effective in reducing the number of errors in the radial arm maze: levetiracetam on its own
Description: The effects of levetiracetam on the spatial memory retention of aged-impaired (AI) rats were assessed in a Radial Arm Maze (RAM) behavioral task using vehicle control and five different dosage levels of levetiracetam (1.25 mg/kg/day, 2.5 mg/kg/day, 5 mg/kg/day, 10 mg/kg/day and 20 mg/kg/day). RAM behavioral tasks were performed on ten AI rats. All six treatment conditions were tested on all ten rats, as described above for the MWM test. The RAM apparatus used consisted of eight equidistantly spaced arms. An elevated maze arm (7 cm width×75 cm length) projected from each facet of an octagonal center platform (30 cm diameter, 51.5 cm height). […] A food well (4 cm diameter, 2 cm deep) was located at the distal end of each arm. Froot Loops™ (Kellogg Company) were used as rewards. […] Numerous extra maze cues surrounding the apparatus were also provided. The AI rats were initially subjected to a pre-training test (Chappell et al. Neuropharmacology 37: 481-487, 1998). […] In the habituation phase, rats were familiarized to the maze for an 8-minute session on four consecutive days. In each of these sessions food rewards were scattered on the RAM, initially on the center platform and arms and then progressively confined to the arms. After this habituation phase, a standard training protocol was used, in which a food pellet was located at the end of each arm. Rats received one trial each day for 18 days. Each daily trial terminated when all eight food pellets had been obtained or when either 16 choices were made or 15 minutes had elapsed. After completion of this training phase, a second training phase was carried out in which the memory demand was increased by imposing a brief delay during the trial. At the beginning of each trial, three arms of the eight-arm maze were blocked. Rats were allowed to obtain food on the five arms to which access was permitted during this initial ‘information phase’ of the trial. Rats were then removed from the maze for 60 seconds, during which time the barriers on the maze were removed, thus allowing access to all eight arms. Rats were then placed back onto the center platform and allowed to obtain the remaining food rewards during this ‘retention test’ phase of the trial. The identity and configuration of the blocked arms varied across trials. The number of “errors” the AI rats made during the retention test phase was tracked. An error occurred in the trial if the rats entered an arm from which food had already been retrieved in the pre-delay component of the trial, or if it re-visited an arm in the post-delay session that had already been visited. After completion of the pre-training test, rats were subjected to trials with more extended delay intervals, i.e., a one-hour delay, between the information phase (presentation with some blocked arms) and the retention test (presentation of all arms). During the delay interval, rats remained off to the side of the maze in the testing room, on carts in their individual home cages. […] Injections were given every other day with intervening washout days. Each AI rat was treated with all six conditions within 23 days of testing. To counterbalance any potential bias, drug effect was assessed using ascending-descending dose series, i.e., the dose series was given first in an ascending order and then repeated in a descending order. Therefore, each dose had two determinations. Parametric statistics (paired t-tests) was used to compare the retention test performance of the AI rats in the one-hour delay version of the RAM task in the context of different doses of levetiracetam and vehicle control (see FIG. 3).

## CC[C@@H](C(N)=O)N1CCCC1=O [levetiracetam, (2S)-2-(2-oxopyrrolidin-1-yl)butanamide]
[1]
  reelin mRNA expression in the lateral entorhinal cortex: significantly increased the expression of reelin
DG/CA3 of aMCI subjects; levetiracetam 62.5 mg BID cohort
  DG/CA3 hyperactivity: does not significantly reduce
DG/CA3 of aMCI subjects; levetiracetam 125 mg twice a day for two weeks, vs placebo, p=0.037
  DG/CA3 activity during lure stimuli correctly identified as similar: reduces DG/CA3 hyper-activity
DG/CA3 of aMCI subjects; levetiracetam 250 mg BID cohort
  DG/CA3 hyperactivity: does not significantly reduce
[2]; expected, due to decreased renal function
  plasma half-life in elderly: 9 to 10 h
[2]; multiple twice-daily dosing
  time to steady state: 2 days
[2]; oral administration
  plasma half-life: approximately 7±1 hour
[2]; oral
  absorption after oral administration: rapidly and almost completely absorbed
  effect of food on bioavailability: not affected by food
  time of peak plasma concentrations following oral administration: about 1 hour
aged-impaired (AI) rats; AI rats
  effective doses of levetiracetam in the animal model: 5 to 10 mg/kg
aged-impaired (AI) rats; levetiracetam 5 mg/kg/day i.p., one-hour delay, p=0.057 vs vehicle
  average no. of errors ± standard error of the mean (SEM): 0.75±0.32
aged-impaired (AI) rats; levetiracetam 10 mg/kg/day i.p., one-hour delay, p=0.042 vs vehicle
  average no. of errors ± SEM: 0.80±0.27
aged-impaired (AI) rats; levetiracetam 20 mg/kg
  performance of AI rats in the radial maze task: fails to improve the performance
aged-impaired (AI) rats; 1.25 mg/kg
  effective in reducing the number of errors in the radial arm maze: not at 1.25 mg/kg or 2.5 mg/kg
aged-impaired (AI) rats; 2.5 mg/kg
  effective in reducing the number of errors in the radial arm maze: not at 1.25 mg/kg or 2.5 mg/kg
